Source: patent publication US10450297B2, “Sulfonyl amide derivatives for the treatment of abnormal cell growth” (Pfizer, Inc., priority 2007, dated 2019)

target: FAK kinase (catalytic construct FAK(410-689)) (Homo sapiens (Human), UniProt Q05397); test: FAKcd kinase ELISA (inhibition of poly-glu-tyr phosphorylation by FAK(410-689)); type: biochemical; conditions: 50 μM final ATP
Sequence (Q05397 410-689): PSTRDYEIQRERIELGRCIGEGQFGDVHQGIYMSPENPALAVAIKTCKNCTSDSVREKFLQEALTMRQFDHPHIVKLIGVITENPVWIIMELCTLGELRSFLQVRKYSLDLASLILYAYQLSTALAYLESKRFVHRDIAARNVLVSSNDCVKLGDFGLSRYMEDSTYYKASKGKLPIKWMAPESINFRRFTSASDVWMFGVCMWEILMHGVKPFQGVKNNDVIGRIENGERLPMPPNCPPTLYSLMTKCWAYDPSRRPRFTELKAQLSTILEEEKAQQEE

Structure (SMILES)	IC50 [nM]
C[C@H](N)c1ccc(Nc2ncc(C(F)(F)F)c(NCc3nccnc3N(C)S(C)(=O)=O)n2)cc1 [Compound 355, N-[3-({[2-({4-((1S)-1-aminoethyl]phenyl}amino)-5-(trifluoromethyl)pyrimidin-4-yl]amino}methyl)pyrazin-2-yl]-N-methylmethane-sulfonamide]	< 0.595
CN(c1ncccc1CNc1nc(Nc2cccc(CNS(C)(=O)=O)c2)ncc1C(F)(F)F)S(C)(=O)=O [Compound 33, N-methyl-N-{3-[({2-[(3-{[(methylsulfonyl)amino]methyl}phenyl)amino]-5-(trifluoromethyl)pyrimidin-4-yl}amino)methyl)pyridin-2-yl}methanesulfonamide]	1.33
Cc1cccc(NS(C)(=O)=O)c1CNc1nc(Nc2ccc(-c3nnn[nH]3)cc2)ncc1C(F)(F)F [Compound 287, N-[3-methyl-2-({[2-{[4-(1H-tetrazol-5-yl)phenyl]amino}-5-(trifluoromethyl)pyrimidin-4-yl]amino}methyl)phenyl]methanesulfonamide]	1.95
CC(C)C(CO)NC(=O)c1ccc(Nc2ncc(C(F)(F)F)c(NCc3cccnc3N(C)S(C)(=O)=O)n2)cc1 (stereo not drawn) [Compound 241, N-[1-(hydroxymethyl)-2-methylpropyl]-4-({4-[{{2-[methyl(methylsulfonyl)amino]pyridin-3-yl}methyl)amino]-5-(trifluoromethyl)pyrimidin-2-yl}amino)benzamide]	0.6
CNC(=O)c1ccc(Nc2ncc(C(F)(F)F)c(NCc3cccc(S(C)(=O)=O)c3)n2)cc1 [Compound 52, N-methyl-4-{[4-{[3-(methylsulfonyl)benzyl]amino}-5-(trifluoromethyl)pyrimidin-2-yl]amino}benzamide]	1.95
C[C@H](N)c1ccc(Nc2ncc(C(F)(F)F)c(NCc3ncccc3N(C)S(C)(=O)=O)n2)cc1 [Compound 356, N-[2-({[2-({4-[(1S)-1-aminoethyl]phenyl}amino)-5-(trifluoromethyl)pyrimidin-4-yl]amino}methyl)pyridin-3-yl]-N-methylmethane-sulfonamide]	0.593
CN(c1ncccc1CNc1nc(Nc2ccc(C(=O)NC(CO)CO)cc2)ncc1C(F)(F)F)S(C)(=O)=O [Compound 264, N-[2-hydroxy-1-(hydroxymethyl)ethyl]-4-({4-[({2-[methyl(methylsulfonyl)amino]pyridin-3-yl}methyl)amino]-5-(trifluoromethyl)pyrimidin-2-yl}amino)benzamide]	4.6
CN(C)C(=O)CNC(=O)c1cccc(Nc2ncc(C(F)(F)F)c(NCc3cccnc3N(C)S(C)(=O)=O)n2)c1 [Compound 133, N-[2-(dimethylamino)-2-oxoethyl]-3-({4-[({2-[methyl(methylsulfonyl)amino]pyridin-3-yl}methyl)amino]-5-(trifluoromethyl)pyrimidin-2-yl}amino)benzamide]	1.95
CN(c1cccc(CNc2nc(Nc3ccc(C(N)=O)c(O)c3)ncc2C(F)(F)F)c1)S(C)(=O)=O [Compound 396, 2-hydroxy-4-{[4-({3-[methyl(methylsulfonyl)amino]benzyl}amino)-5-(trifluoromethyl)pyrimidin-2-yl]amino}bertzamide]	3.13

Continued, values first:

IC50 [nM]	Structure (SMILES)
1.55	CN(c1ncccc1CNc1nc(Nc2ccc(CCl)cc2)ncc1C(F)(F)F)S(C)(=O)=O [Example 7, N-(3-((2-(4-(chloromethyl)phenylamino)-5-(trifluoromethyl)pyrimidin-4-ylamino)methyl)pyridin-2-yl)-N-methylmethanesulfonamide]
> 188	CN(c1ncccc1CNc1nc(Nc2ccnc(N)n2)ncc1C(F)(F)F)S(C)(=O)=O [Compound 299, N-{3-[({2-[(2-aminopyrimidin-4-yl)amino]-5-(trifluoromethyl)pyrimidin-4-yl}amino)methyl]pyridin-2-yl}-N-methylmethane-sulfonamide]
0.6	Cc1ccc(C#N)cc1Nc1ncc(C(F)(F)F)c(NCc2cccnc2N(C)S(C)(=O)=O)n1 [Compound 220, N-{3-[({2-[(5-cyano-2-methylphenyl)amino]-5-(trifluoromethyl)pyrimidin-4-yl}amino)methyl]pyridin-2-yl}-N-methylmethane-sulfonamide]
188	Cc1cc(Nc2ncc(C(F)(F)F)c(NCc3cccnc3N(C)S(C)(=O)=O)n2)ccn1 [Compound 221, N-methyl-N-{3-[({2-[(2-methylpyridin-4-yl)amino]-5-(trifluoromethyl)pyrimidin-4-yl}amino)methyl]pyridin-2-yl}methanesulfonamide]
< 0.595	CN(c1ncccc1CNc1nc(Nc2ccc(-c3nnn[nH]3)cc2)ncc1C(F)(F)F)S(C)(=O)=O [Compound 314, N-methyl-N-[3-({[2-{[4-(1H-tetrazol-5-yl)phenyl]amino}-5-(trifluoromethyl)pyrimidin-4-yl]amino}methyl)pyridin-2-yl]methanesulfonamide]
0.6	CN(c1cccnc1CNc1nc(Nc2ccc(C(N)=O)cc2)ncc1C(F)(F)F)S(C)(=O)=O [Compound 73, 4-({4-(({3-[methyl(methylsulfonyl)amino]pyridin-2-yl}methyl)amino]-5-(trifluoromethyl)pyrimidin-2-yl}amino)benzamide]
0.6	CN(c1ncccc1CNc1nc(Nc2ccc(C(N)=O)cc2)ncc1C(F)(F)F)S(C)(=O)=O [Compound 20, 4-({4-[({2-[methyl(methylsulfonyl)amino]pyridin-3-yl}methyl)amino]-5-(trifluoromethyl)pyrimidin-2-yl}amino)benzamide]
0.6	CN(c1ncccc1CNc1nc(Nc2ccc(C(=O)N3CCC(O)CC3)cc2)ncc1C(F)(F)F)S(C)(=O)=O [Compound 239, N-[3-({[2-({4-[(4-hydroxypiperidin-1-yl)carbonyl]phenyl}amino)-5-(trifluoromethyl)pyrimidin-4-yl]amino}methyl)pyridin-2-yl]-N-methylmethane-sulfonamide]
0.7	CN(c1ncccc1CNc1nc(Nc2cccc(CN)c2)ncc1C(F)(F)F)S(C)(=O)=O [Compound 214, N-[3-({[2-{[3-(aminomethyl)phenyl]amino}-5-(trifluoromethyl)pyrimidin-4-yl]amino}methyl)pyridin-2-yl]-N-methylmethane-sulfonamide]
0.6	COCCNC(=O)c1ccc(Nc2ncc(C(F)(F)F)c(NCc3cccnc3N(C)S(C)(=O)=O)n2)cc1 [Compound 276, N-(2-methoxyethyl)-4-({4-[({2-[methyl(methylsulfonyl)amino]pyridin-3-yl}methyl)amino]-5-(trifluoromethyl)pyrimidin-2-yl}amino)benzamide]
1.02	CS(=O)(=O)c1cccc(CNc2nc(Nc3ccccc3)ncc2C(F)(F)F)c1 [Compound 46, N-4-(3-(methylsulfonyl)benzyl]-N-2-phenyl-5-(trifluoromethyl)pyrimidine-2,4-diamine]
4.47	CC1CCN(C(=O)c2cccc(Nc3ncc(C(F)(F)F)c(NCc4cccnc4N(C)S(C)(=O)=O)n3)c2)CC1 [Compound 197, N-methyl-N-[3-({[2-({3-[(4-methylpiperidin-1-yl)carbonyl]phenyl}amino)-5-(trifluoromethyl)pyrimidin-4-yl]amino}methyl)pyridin-2-yl]methanesulfonamide]
